Assay [1] concerns tobacco (Nicotiana tabacum cv. Xenthi) leaf explants. Nature of the assay: Effect on growth of tobacco leaf explants (fresh weight increase). The conditions noted are these: average after 3 weeks in culture. The format is cell-based. The procedure:
The fresh weight increase was determined after 3 weeks in culture.

Assay [2] relates to plant cells, such as soybean (SB-1), tobacco and Brassica sp. Nature of the assay: Inhibition of plant cell growth by deoxyadenosine and analogs in culture medium. In kind it is cell-based.
The subject of assay [3] is leaf discs from Normal (non-transformed) plants. Nature of the assay: Culture of leaf discs from non-transformed plants on selective media. The format is cell-based, Nicotiana tabacum. How it is done:
(§1) Leaf discs cut from Nicotiana tabacum cv. Xanthi were soaked in a dilution of an overnight culture of Agrobacterium/pDY18 for several seconds, blotted dry and placed on Murashige and Skoog medium containing Gamborg's (MS/B5 medium containing 30 g/l sucrose, 2 mg/l2,4-dichlorophenoxy acetic acid and […] phytoagar). After 2 days of co-cultivation the leaf discs were placed on medium containing ara-A (100 μM) or cordycepin (50 μM) as selective agents and 500 μg/ml carbenicillin to inhibit Agrobacterium growth. The shoots which were regenerated were transferred to rooting medium containing MS basal medium containing Gamborg's vitamins (MS/B5, Sigma), 30 g/l sucrose, 0.1 mg/l a-naphthalene acetic acid (NAA), 500 μg/ml carbenicillin and 100 μg/ml kanamycin and 6 g/l phytoagar, adjusted to pH 5.6. Regenerated plants were transferred to soil and grown at 25° C. in an 18/6 hrs day/night cycle. Two plants designated 18-2 and 18-3 were chosen for further study.
(§2) Leaf discs cut from plant 18-2, 18-3, and Normal (non-transformed) plants were cultured on agar MS agar media containing either no selective agent or ara-A (100 μM) or cordycepin (50 μM).

Assay [4] concerns leaf discs from ADA transformed plants 18-2, 18-3. The assay can be described thus: Culture of leaf discs from ADA transformed plants on selective media. The format is cell-based, Nicotiana tabacum. The procedure:
as §1, §2

The test system of assay [5] is soybean cells (Glycine max) line SB-1. The assay can be described thus: Effect on growth of soybean cells in culture (dry weight increase). The format is cell-based. The conditions noted are these: for Increase In Dry Weight: average after 6 days in culture. How it is done: Aliquots of cells were subcultured to medium containing either 0, 0.74 μM, 7.4 μM, 74 μM of 2'-deoxyadenosine and cultured for 6 days. The cells were then harvested on filters, oven dried and weighed.

Consider `Nc1ncnc2c1ncn2[C@@H]1O[C@H](CO)[C@@H](O)[C@H]1O` [Adenosine], for which the “Increase in Fresh Weight” value stood at 0.95 ± 0.069 g in assay [1] (40 μM), 0.81 ± 0.060 g in assay [1] (80 μM), 0.94 ± 0.056 g in assay [1] (160 μM) and 0.57 ± 0.052 g in assay [1] (320 μM).
Consider `Nc1nc(N)c2ncn([C@@H]3O[C@H](CO)[C@@H](O)[C@H]3O)c2n1` [2,6-diaminopurine riboside], for which the “growth of plant cells in presence of compound in culture medium” value (“growth of plant cells” for short) in assay [2] is listed as “inhibited”.
On the same count and under the same terms, the entry for `Nc1ncnc2c1ncn2[C@@H]1O[C@H](CO)[C@H](O)[C@H]1O` [xyl-A, 9-B-D-xylofuranosyl adenine] is “inhibited”; for `OC[C@H]1O[C@@H](n2cnc3c(Cl)ncnc32)[C@H](O)[C@@H]1O` [6-chloropurine riboside] it is “inhibited”; for `COc1ncnc2c1ncn2[C@@H]1O[C@H](CO)[C@@H](O)[C@H]1O` [6-methoxypurine riboside] it is “inhibited”.
`Nc1ncnc2c1ncn2[C@@H]1O[C@H](CO)[C@@H](O)[C@@H]1O` [Arabinofuranosyl, 9-B-D-arabinofuranosyl adenine]: the “Increase in Fresh Weight” value in assay [1] (5 μM) stood at 0.56 ± 0.047 g; in assay [1] (10 μM) it was 0.32 ± 0.037 g; in assay [1] (20 μM), 0.23 ± 0.025 g; in assay [1] (40 μM), 0.10 ± 0.048 g; in assay [1] (80 μM), 0.05 ± 0.008 g; in assay [1] (160 μM), 0.02 ± 0.001 g. The “growth of tissues on selective medium” value in assay [3] (ara-A 100 μM) is given as “No growth was observed”; in assay [4] (transformed plant 18-2, ara-A 100 μM) it was “proliferated”; in assay [4] (transformed plant 18-3, ara-A (100 μM)), “proliferated”. The “growth of plant cells” value in assay [2] was “inhibited”.
Take `Nc1ncnc2c1ncn2[C@H]1CC[C@@H](CO)O1` [2'-3'-dideoxyadenosine]: the “growth of plant cells” value in assay [2] is “inhibited”.
The same measure, in the same setting: as for `Nc1nc(Cl)nc2c1ncn2[C@@H]1O[C@H](CO)[C@@H](O)[C@H]1O` [2-chloroadenosine], the entry is “inhibited”.
Take `Nc1ncnc2c1ncn2[C@@H]1O[C@H](CO)C[C@H]1O` [Cordycepin, 3'-deoxyadenosine]: the “Increase in Fresh Weight” value in assay [1] (5 μM) was 0.61 ± 0.059 g; in assay [1] (10 μM), 0.10 ± 0.016 g; in assay [1] (20 μM) it was 0.06 ± 0.008 g; in assay [1] (40 μM) it was 0.04 + 0.049 g; in assay [1] (80 μM) it was 0.02 ± 0.001 g; in assay [1] (160 μM) it was 0.02 ± 0.001 g. In addition, the “growth of tissues on selective medium” value in assay [3] (cordycepin 50 μM) is reported as “No growth was observed”; in assay [4] (transformed plant 18-2, cordycepin 50 μM), “proliferated”; in assay [4] (transformed plant 18-3, cordycepin (50 μM)) it was “proliferated”. The “growth of plant cells” value in assay [2] is reported as “inhibited”.
Take `Nc1ncnc2c1ncn2[C@H]1C[C@H](O)[C@@H](CO)O1` [2'-deoxyadenosine]: the “Increase in Fresh Weight” value is reported as 0.74 ± 0.058 g in assay [1] (40 μM); 0.96 ± 0.050 g in assay [1] (80 μM); 0.32 ± 0.038 g in assay [1] (160 μM); 0.07 ± 0.005 g in assay [1] (320 μM); 0.04 ± 0.003 g in assay [1] (640 μM). In addition, the results for the “Increase In Dry Weight” value in assay [5] (0.74 μM), in assay [5] (7.40 μM) and in assay [5] (74.00 μM) were 6.05 mg, 3.51 mg and 1.93 mg, respectively. Also, the “effect on growth of soybean cells” value in assay [5] (all three concentrations (0.74, 7.4, 74 μM), 6 days) is on record as “inhibitory”. The “growth of plant cells” value in assay [2] was “inhibited”.

For the origin of these results see US5474929A, “Selectable/reporter gene for use during genetic engineering of plants and plant cells” (National Research Council of Canada, priority 1993, dated 1995).
